# In patent publication US20100081631A1, “METHODS AND COMPOSITIONS FOR TREATING GASTROINTENSTIAL DISORDERS” (priority 2006, published 2010):
# What was measured:
# [1] = system: PI3k/Akt pathway (Akt phosphorylation) in IEC-18 cells; test: Akt phosphorylation Western blot in IEC-18 cell lysates; assay type: cell-based, rat; details: 24 hours; for Akt phosphorylation: 5 μM SC-560, 10 μM celecoxib or 10 μM indomethacin
# Procedure: Rat intestinal epithelial cells (IEC-18 cells) are immortalized normal epithelial cells purchased from the American Type Culture Collection (ATCC). For these experiments, IEC-18 cells were cultured in high glucose Delbecco's Modified Eagle's Medium (DMEM) at 37° C. under 5% CO2 and incubated for 24 hours with either a) 5 μM of the COX-1 inhibitor SC-560 (purchased from Sigma-Aldrich, St. Louis, Mo.), 10 μM of the COX-2 inhibitor celecoxib, or 10 μM of the COX-½ inhibitor indomethacin. Drugs were provided in a 0.1% dimethylsulfoxide (DMSO) vehicle.
# The PI3k/Akt pathway is monitored using the following general assay procedure. Following incubation cell lysates are collected with lysis buffer containing phosphatase and proteinase inhibitors. The supernanats are collected and protein concentrations are measured. Then SDS(sodium dodecyl sulfate) sample buffers are made to make sure final protein concentration is equal in each sample and boiled for minutes at 100° C. Then the samples are loaded on to a 4%-12% pre-made SDS-PAGE (polyacrylamide gel electrophoresis) and the gel is developed under electrophoresis. When the samples reach the bottom of the gel, the gel is removed from the electrophoresis equipment and transferred to a nitrocellulose membrane and the membrane blocked with milk. The membrane is incubated with a primary antibody selective for either a) total Akt or b) phosphrylated Akt overnight at 4° C. A secondary antibody having a conjugated horseradish peroxidase (HRP) moiety is used to bind the constant regions of the primary antibodies. The membrane is washed under conditions favoring selective antibody binding. Finally, the HRP is detected using a enzymatically initiated chemiluminescent substrate such as Super Signal® ELISA Pico Substrates, available from Thermo Fisher Scientific.
# [2] = system: C57BL/6 mice; test: Acetic acid-induced gastric ulcer model in mice; assay type: in vivo
# [3] = molecular target: T1, human EP4 prostaglandin receptor (Homo sapiens, UniProt P35408); test: FLIPR Ca++ flux test; assay type: cell-based; details: cells expressing human EP4, read-out: in vitro EC50 (concentration at 50% of maximal efficacy)
# T1 construct: expressed in transfected cells; host or cells: HEK-EBNA cells
# T1 sequence (P35408 whole entry): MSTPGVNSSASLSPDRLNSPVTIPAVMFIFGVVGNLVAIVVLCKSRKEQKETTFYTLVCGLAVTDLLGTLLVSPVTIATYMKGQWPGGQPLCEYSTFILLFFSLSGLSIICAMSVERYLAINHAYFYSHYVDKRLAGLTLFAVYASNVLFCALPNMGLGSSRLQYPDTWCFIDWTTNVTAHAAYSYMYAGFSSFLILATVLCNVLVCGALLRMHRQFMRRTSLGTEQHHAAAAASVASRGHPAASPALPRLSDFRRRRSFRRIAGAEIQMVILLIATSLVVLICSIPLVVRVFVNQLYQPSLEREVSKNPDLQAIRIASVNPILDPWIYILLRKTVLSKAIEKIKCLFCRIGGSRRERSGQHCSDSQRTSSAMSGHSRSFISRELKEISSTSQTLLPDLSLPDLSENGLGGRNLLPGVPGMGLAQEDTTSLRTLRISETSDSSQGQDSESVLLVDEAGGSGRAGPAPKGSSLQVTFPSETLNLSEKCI
# Procedure: HEK-293 (EBNA) cells, stably expressing one type or subtype of recombinant human prostaglandin receptors (prostaglandin receptors expressed: hDP/Gqs5; hEP1; hEP2/Ggs5; hEP3A/Gqi5; hEP4/Ggs5; hFP; hIP; hTP), are cultured in 100 mm culture dishes in high-glucose DMEM medium containing 10% fetal bovine serum, 2 mM 1-glutamine, 250 μg/ml geneticin (G418) and 200 μg/ml hygromycin B as selection markers, and 100 units/ml penicillin G, 100 μg/ml streptomycin and 0.25 μg/ml amphotericin B.
# Transfectant cells are seeded at a density of 5×10^4 cells per well in Biocoat®. Poly-D-lysine-coated black-wall, clear-bottom 96-well plates (Becton-Dickinson) and allowed to attach overnight in an incubator at 37° C. Cells are then washed two times with HBSS-HEPES buffer (Hanks Balanced Salt Solution without bicarbonate and phenol red, 20 mM HEPES, pH 7.4) using a Denley Cellwash plate washer (Labsystems). […]
# Cells are excited with an Argon laser at 488 nm, and emission measured through a 510-570 nm bandwidth emission filter (FLIPR.™., Molecular Devices, Sunnyvale, Calif.). […] The peak increase in fluorescence intensity is recorded for each well. […] The peak fluorescence change in each drug-containing well is then expressed relative to the controls. […]
# [4] = system: IEC-18 cells; test: Doxorubicin/celecoxib-induced apoptosis of IEC-18 cells by flow cytometry; assay type: cell-based, rat; details: 48 hours
# Procedure: IEC-18 cells were cultured in high glucose DMEM containing 10% fetal bovine serum (FBS), 1% penicillin, 1% streptomycin, and 50 unit insulin essentially as indicated in Example 101 for 48 hours in the presence of the 0.05 μg/ml chemotherapy agent doxorubicin to induce apoptosis. In the presence of 10 μM celecoxib (which inhibits endogenous prostaglandin PGE2 expression), apoptosis of doxorubicin-treated IEC-18 cells proceeds within 48 hours at such very low concentrations of doxorubicin. Finally, the cells collected by trypsin were subjected to flow cytometry analysis for identification of the percentage of cells in different stages of the cell cycle.
# Cultured cells were prepared for flow cytometry by trypsinization and centrifugation. The cells were then washed with cold phosphate buffered saline solution (PBS), then fixed with cold 70% ethanol overnight. The cells were then again washed with PBS and stained with propidium iodide, a nucleic acid intercalating dye, in the presence of RNase for 30 minutes at room temperature. The cells were then sorted using the buffer provided by Becton-Dickenson, the maker of the flow cytometry equipment.
# Additionally, using CellQuest® software (Becton-Dickenson) a quantification of the percent of apoptosis occurring in IEC-18 cells after 48 hours' incubation was performed. […]
# [5] = system: C57BL/6 mice; test: Acetic acid-induced gastric ulcer model in mice; assay type: in vivo; remark: listed apart in the source
# Description: Gastric ulcers were produced in C57BL/6 mice by using 40% acetic acid as follows. Animals were anesthetized. The abdomen of each animal was surgically opened, and the stomach exposed. A 3 mm curette was placed onto the anterior surface of each stomach. A solution of 40% acetic acid was placed inside the curette. The curette prevents damage to surrounding tissue. The acetic acid treatment causes damage to blood vessels of the stomach, producing chemical death to the mucous layer.
# On the third day following induction of ulceration, the animals were given various treatments by oral gavage. First, vehicle (4% DMSO-corn oil) or a low dose (3 mg/kg/day) of indomethacin in 4% DMSO-corn oil was used. This dose of indomethacin has been reported not to induce gross lesions on the stomach, although it can inhibit the production of endogenous prostglandin PGE2.
# On day 7 blood was withdrawn for hematology analysis from sacrificed animals, and subjected to automated testing for standard hematological parameters. Ulcer areas (defined as the regions of the stomach not covered by stomach mucosal epithelial cells) were measured by dissection microscopy for macroscopic analysis; additionally, the widest section of each ulcer sample was measured and observed as the size index under microscopy. The stomachs were processed for pathological analysis by dissection and section through the widest part of the ulcer. Sections were stained using hematoxylin & eosin.
# Mice were then treated with 10 nM Compound 7 or the vehicle under otherwise identical conditions. In this experiment the vehicle was 4% DMSO in corn oil in a volume of 0.1 ml. The mice were sacrificed and the stomachs examined on either the 7th day or the 11th day following ulceration. […] Under dissection microscopy, the areas of the ulcers in mice treated with Compound 7 were 60% and 32% of the control on days 7 and 11, respectively. […] (FIG. 4B).
# [6] = molecular target: T1, human EP4 prostaglandin receptor; test: Activity test measuring changes in intracellular cAMP in HEK-EBNA cells; assay type: cell-based; details: HEK-EBNA cells expressing human EP4, read-out: in vitro EC50 (concentration at 50% of maximal efficacy)
# Procedure: The dosage of the prostaglandin EP4 agonist component employed in accordance with the present invention varies over a relatively wide range and depends on factors well known in the medicinal arts including, but not limited to: the weight of the individual to whom the agonist component is administered, the general health status/condition of such individual, the disease/condition sought to be treated/prevented by such administration, the severity of such disease/condition in such individual, the potency of the specific EP4 receptor agonist component being administered, the sensitivity of such individual to the specific agonist component being administered, the mode of administration, the age of such individual, the sex of such individual, the pregnancy status of such individual, the other ongoing drug therapies being administered to such individual and the like factors. The compound (Z)-7-{(1R,4S,5R)-5-[(E)-5-(3-chloro-benzo[b]thiophene-2-yl)-3-hydroxy-pent-1-enyl]-4-hydroxy-3,3-dimethyl-2-oxo-cyclopentyl}-hept-5-enoic acid has an in vitro EC50 (concentration at 50% of maximal efficacy) of between 0.03 and 0.1 nM in both the FLIPR® Ca^++ flux test and in an alternate activity test measuring changes in the intracellular concentration of cAMP in HEK-EBNA cells expressing the human EP4 prostaglandin receptor.
# [7] = 0.1 mg/kg/d Compound 7 + 3 mg/kg/d indomethacin vs control mice
# [8] = indomethacin 3 mg/kg/day oral gavage, day 7, vs vehicle
smiles,measurement,setting,value
"CC1(C)C(=O)[C@H](C/C=C\CCCC(=O)O)[C@@H](/C=C/C(O)CCc2sc3ccccc3c2Cl)[C@@H]1O (stereo partly drawn) [Compound 7, (Z)-7-{(1R,4S,5R)-5-[(E)-5-(3-chloro-benzo[b]thiophene-2-yl)-3-hydroxy-pent-1-enyl]-4-hydroxy-3,3-dimethyl-2-oxo-cyclopentyl}-hept-5-enoic acid]",Akt phosphorylation on co-incubation with indomethacin,[1]; 10 nM Compound 7 + 10 μM indomethacin vs indomethacin alone,maintained Akt phosphorylation at higher levels
same,hematocrit (HCT),[2]; [7],significantly greater
same,hemoglobin (HGB),[2]; [7],significantly greater
same,number of red blood cells (RBC),"[2]; 0.1 mg/kg/d Compound 7 + 3 mg/kg/d indomethacin vs control mice, n=20",significantly greater
same,blood loss (hematology),[2]; 0.1 mg/kg/d Compound 7 + 3 mg/kg/d indomethacin vs indomethacin alone,significantly less blood loss
same,EC50,[3],0.03 to 0.1 nM
same,percent apoptosis,[4]; 10 nM Compound 7 added to 0.05 μg/ml doxorubicin + 10 μM celecoxib,approximately 5%
same,ulcer sizes vs vehicle,"[5]; 10 nM Compound 7, vehicle 4% DMSO in corn oil, day 7 or 11",significantly smaller ulcer sizes
same,areas of the ulcers under dissection microscopy,"[5]; Compound 7, day 7",60 % of the control
same,areas of the ulcers under dissection microscopy,"[5]; Compound 7, day 11",32 % of the control
same,inflammatory cell infiltrations and necrotic tissue in granulation tissue,[5]; Compound 7 vs control group,significantly less
same,gross and microscopic morphologies of the ulcer tissue,"[5]; Compound 7 vs vehicle, day 7",stimulates healing of ulcer and facilitate the removal of necrosis tissue
same,EC50,[6],0.03 to 0.1 nM
COc1ccc(-n2nc(C(F)(F)F)cc2-c2ccc(Cl)cc2)cc1 [SC-560],Akt phosphorylation,[1],inhibited Akt phosphorylation
"COc1cccc2c1C(=O)c1c(O)c3c(c(O)c1C2=O)C[C@@](O)(C(=O)CO)C[C@@H]3O[C@H]1C[C@H](N)[C@H](O)[C@H](C)O1 [doxorubicin, reference compound]",percent apoptosis,[4]; 0.05 μg/ml doxorubicin with 10 μM celecoxib,about 13%
"COc1ccc2c(c1)c(CC(=O)O)c(C)n2C(=O)c1ccc(Cl)cc1 [indomethacin, reference compound]",Akt phosphorylation,[1],inhibited phosphorylation of Akt to a greater extent that did SC-560 or celecoxib
same,spontaneous healing of gastric ulcers (gross and microscopic ulcer size),"[5]; indomethacin 3 mg/kg/day oral gavage from day 3, day 7, vs vehicle",delayed the spontaneous healing of gastric ulcers
same,blood loss at ulcer sites,[5]; [8],exacerbate blood loss at ulcer sites
same,inflammation (lymphocytes in the blood),[5]; [8],exacerbated inflammation
